Test system: Staphylococcus aureus 6538 P
Experiment: antibacterial effect / germ reduction of finished textiles after washing, test standard not stated
Format: cell-based
Details: less pronounced than tannic acid, gallic acid, stearic acid or L-phenylalanine
Experimental: The two samples finished in this way are washed at 40° C. and dried between the washing cycles. After 20 and 30 washing cycles, the antibacterial effect against Staphylococcus aureus 6538 P is tested.
In an experimental finishing. 14 kilograms of an orange colored tricot made of polyester/polyamide/elastan are prewashed at 60° C., then 280 grams of L-phenylalanine and 110 liters of water are added. Allow to prerun for 10 minutes, heated to 60° C. at 3° C. per minute and left to run for 15 minutes at 60° C. 80 grams of Sanitized T 99-19 in 2 liters of water are added and left to run for a further 30 minutes at 60° C. The liquor is cooled to 35° C. and then drawn off. 40 liters of water for rinsing are added, left to run for two minutes and the rinse water is drawn off. The textile is discharged via press-off rolls and dried on a tenter at 120° C. After 50 washing cycles in accordance with EN ISO 6330 (6A), washed with the colorfast detergent according to ECE 77, a sample achieves a germ count reduction of factor 100 (log reduction=2.0) compared with the inoculum.

| Compound | antimicrobial effect after washing when used as primer (P), in words |
| --- | --- |
| CCCCCCCCCCCCCCCCCCN [octadecylamine] | improvement in the antimicrobial effect after washing |
| O=C(O)c1ccc(C(=O)O)cc1 [terephthalic acid, benzene-1,4-dicarboxyolic acid] | improvement in the antimicrobial effect after washing |

Source: US8906115B2, “Method for the antimicrobial finishing of textiles and fibers” (Sanitized AG, priority 2006, dated 2014)
